Data reported in ChEMBL document CHEMBL1201862, “PubChem BioAssay data set” (2004).
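Cultured in 96-well plates, cells were exposed to test compound for 48 hours across five concentrations. The concentration for 50% growth inhibition is given as GI50.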 Active and inactive are the calls of the source. No stated cut-off is given here; in the data, active = GI50 up to about 1.1 µM and inactive = higher.

How the values were obtained:
Experiment in all cases: NCI-60 cell line screen, 48 h
HT-29 = test system: HT-29
RPMI-8226 = test system: RPMI-8226
MDA-N = test system: MDA-N
EKVX = test system: EKVX
SNB-19 = test system: SNB-19
786-0 = test system: 786-0
COLO 205 = test system: COLO 205
A498 = test system: A498
SK-OV-3 = test system: SK-OV-3
NCI-H226 = test system: NCI-H226
SK-MEL-2 = test system: SK-MEL-2
OVCAR-8 = test system: OVCAR-8
SF-295 = test system: SF-295
OVCAR-4 = test system: OVCAR-4
Malme-3M = test system: Malme-3M
A549 = test system: A549
SNB-75 = test system: SNB-75
CCRF-CEM = test system: CCRF-CEM
IGROV-1 = test system: IGROV-1
OVCAR-3 = test system: OVCAR-3
MDA-MB-231 = test system: MDA-MB-231
SK-MEL-5 = test system: SK-MEL-5
PC-3 = test system: PC-3
SF-268 = test system: SF-268
SK-MEL-28 = test system: SK-MEL-28
SW-620 = test system: SW-620
Hs-578T = test system: Hs-578T
KM12 = test system: KM12
UO-31 = test system: UO-31
OVCAR-5 = test system: OVCAR-5
U-251 = test system: U-251
LOX IMVI = test system: LOX IMVI
K562 = test system: K562
HOP-92 = test system: HOP-92
HCT-15 = test system: HCT-15
M14 = test system: M14
HCT-116 = test system: HCT-116
MCF7 = test system: MCF7
SN12C = test system: SN12C
TK-10 = test system: TK-10
HOP-62 = test system: HOP-62
DU-145 = test system: DU-145
NCI-H23 = test system: NCI-H23
NCI/ADR-RES = test system: NCI/ADR-RES
SR = test system: SR
UACC-62 = test system: UACC-62
ACHN = test system: ACHN
MDA-MB-435 = test system: MDA-MB-435
MOLT-4 = test system: MOLT-4
NCI-H522 = test system: NCI-H522
UACC-257 = test system: UACC-257
HCC 2998 = test system: HCC 2998
T47D = test system: T47D
RXF 393 = test system: RXF 393
NCI-H460 = test system: NCI-H460
CAKI-1 = test system: CAKI-1
HL-60 = test system: HL-60
SF-539 = test system: SF-539

O=C1/C(=C/c2cccs2)NC(=S)N1CN1CCCCC1
GI50 (HT-29): 39.9 µM (inactive) | GI50 (RPMI-8226): 28.9 µM (inactive) | GI50 (MDA-N): > 100 µM (inactive) | GI50 (EKVX): 55 µM (inactive) | GI50 (SNB-19): 29.7 µM (inactive) | GI50 (786-0): 42.3 µM (inactive) | GI50 (COLO 205): 17.4 µM (inactive) | GI50 (A498): > 100 µM (inactive) | GI50 (SK-OV-3): > 100 µM (inactive) | GI50 (NCI-H226): 78.2 µM (inactive) | GI50 (SK-MEL-2): > 100 µM (inactive) | GI50 (OVCAR-8): 41 µM (inactive) | GI50 (SF-295): > 100 µM (inactive) | GI50 (OVCAR-4): 20.7 µM (inactive) | GI50 (Malme-3M): > 100 µM (inactive) | GI50 (A549): > 100 µM (inactive) | GI50 (SNB-75): > 100 µM (inactive) | GI50 (CCRF-CEM): 60.5 µM (inactive) | GI50 (IGROV-1): 67.1 µM (inactive) | GI50 (OVCAR-3): > 100 µM (inactive) | GI50 (MDA-MB-231): > 100 µM (inactive) | GI50 (SK-MEL-5): 35.3 µM (inactive) | GI50 (PC-3): 98.2 µM (inactive) | GI50 (SF-268): > 100 µM (inactive) | GI50 (SK-MEL-28): > 100 µM (inactive) | GI50 (SW-620): 30.3 µM (inactive) | GI50 (Hs-578T): > 100 µM (inactive) | GI50 (KM12): > 100 µM (inactive) | GI50 (UO-31): 80.2 µM (inactive) | GI50 (OVCAR-5): > 100 µM (inactive) | GI50 (U-251): 85.9 µM (inactive) | GI50 (LOX IMVI): 33 µM (inactive) | GI50 (K562): 52.1 µM (inactive) | GI50 (HOP-92): 77.1 µM (inactive) | GI50 (HCT-15): 29.9 µM | GI50 (M14): 61.7 µM (inactive) | GI50 (HCT-116): 33 µM (inactive) | GI50 (MCF7): 28.2 µM (inactive) | GI50 (SN12C): 97.5 µM (inactive) | GI50 (TK-10): > 100 µM (inactive) | GI50 (HOP-62): > 100 µM (inactive) | GI50 (DU-145): 42.5 µM (inactive) | GI50 (NCI-H23): > 100 µM (inactive) | GI50 (NCI/ADR-RES): > 100 µM (inactive) | GI50 (SR): 88.9 µM (inactive) | GI50 (UACC-62): 55.8 µM (inactive) | GI50 (ACHN): 42.6 µM (inactive) | GI50 (MDA-MB-435): 85.1 µM (inactive) | GI50 (MOLT-4): 55.5 µM (inactive) | GI50 (NCI-H522): 71 µM (inactive)

COC(=O)C1=C2SCc3ccc(cc3)CSC3=C(C(=O)OC)SC(=C(S2)S1)S3
GI50 (UACC-257): > 100 µM (inactive) | GI50 (HCC 2998): > 100 µM (inactive) | GI50 (RPMI-8226): 33 µM (inactive) | GI50 (MDA-N): 74.6 µM (inactive) | GI50 (SNB-19): > 100 µM (inactive) | GI50 (786-0): 96.6 µM (inactive) | GI50 (COLO 205): > 100 µM (inactive) | GI50 (A498): > 100 µM (inactive) | GI50 (SK-OV-3): > 100 µM (inactive) | GI50 (NCI-H226): > 100 µM (inactive) | GI50 (SK-MEL-2): > 100 µM (inactive) | GI50 (SF-295): 91.8 µM (inactive) | GI50 (OVCAR-4): 64.6 µM (inactive) | GI50 (A549): > 100 µM (inactive) | GI50 (SNB-75): > 100 µM (inactive) | GI50 (OVCAR-3): > 100 µM (inactive) | GI50 (MDA-MB-231): > 100 µM (inactive) | GI50 (SK-MEL-5): > 100 µM (inactive) | GI50 (PC-3): > 100 µM (inactive) | GI50 (SK-MEL-28): > 100 µM (inactive) | GI50 (SW-620): > 100 µM (inactive) | GI50 (KM12): > 100 µM (inactive) | GI50 (UO-31): > 100 µM (inactive) | GI50 (U-251): > 100 µM (inactive) | GI50 (K562): 43.6 µM (inactive) | GI50 (T47D): > 100 µM (inactive) | GI50 (M14): > 100 µM (inactive) | GI50 (HCT-116): > 100 µM (inactive) | GI50 (MCF7): > 100 µM (inactive) | GI50 (SN12C): > 100 µM (inactive) | GI50 (TK-10): > 100 µM (inactive) | GI50 (HOP-62): > 100 µM (inactive) | GI50 (DU-145): > 100 µM (inactive) | GI50 (RXF 393): 67.3 µM (inactive) | GI50 (UACC-62): > 100 µM (inactive) | GI50 (NCI-H460): > 100 µM (inactive) | GI50 (CAKI-1): > 100 µM (inactive) | GI50 (HL-60): 0.253 µM (active) | GI50 (ACHN): > 100 µM (inactive) | GI50 (MDA-MB-435): 49.4 µM (inactive) | GI50 (MOLT-4): > 100 µM (inactive)

CC[C@@]1(O)C[C@H](OC2CC(N(C)C)C(OC3CC(O)C(OC4CCC(=O)C(C)O4)C(C)O3)C(C)O2)c2c(cc3c(c2O)C(=O)c2c(O)ccc(O)c2C3=O)[C@H]1C(=O)OC (stereo partly drawn)
GI50 (UACC-257): 0.0153 µM (active) | GI50 (SNB-19): < 0.0001 µM (active) | GI50 (COLO 205): < 0.0001 µM (active) | GI50 (A498): < 0.01 µM (active) | GI50 (SK-MEL-2): < 0.01 µM (active) | GI50 (SNB-75): 0.0181 µM (active) | GI50 (CCRF-CEM): < 0.0001 µM (active) | GI50 (IGROV-1): < 0.0001 µM (active) | GI50 (OVCAR-3): < 0.01 µM (active) | GI50 (OVCAR-5): 0.01 µM (active) | GI50 (U-251): < 0.01 µM (active) | GI50 (HOP-92): < 0.01 µM (active) | GI50 (M14): < 0.01 µM (active) | GI50 (MCF7): < 0.0001 µM (active) | GI50 (SR): < 0.01 µM (active) | GI50 (UACC-62): < 0.01 µM (active) | GI50 (HL-60): < 0.0001 µM (active)

CNC(=O)CCCNC(=O)CCCCC(=O)N(C)C
GI50 (HT-29): > 100 µM (inactive) | GI50 (RPMI-8226): > 100 µM (inactive) | GI50 (MDA-N): > 100 µM (inactive) | GI50 (SNB-19): > 100 µM (inactive) | GI50 (786-0): > 100 µM (inactive) | GI50 (COLO 205): > 100 µM (inactive) | GI50 (A498): > 100 µM (inactive) | GI50 (SK-OV-3): > 100 µM (inactive) | GI50 (SK-MEL-2): > 100 µM (inactive) | GI50 (OVCAR-8): > 100 µM (inactive) | GI50 (SF-295): > 100 µM (inactive) | GI50 (OVCAR-4): > 100 µM (inactive) | GI50 (Malme-3M): > 100 µM (inactive) | GI50 (A549): > 100 µM (inactive) | GI50 (OVCAR-3): > 100 µM (inactive) | GI50 (MDA-MB-231): > 100 µM (inactive) | GI50 (SK-MEL-5): > 100 µM (inactive) | GI50 (PC-3): > 100 µM (inactive) | GI50 (SF-268): > 100 µM (inactive) | GI50 (SK-MEL-28): > 100 µM (inactive) | GI50 (SW-620): > 100 µM (inactive) | GI50 (KM12): > 100 µM (inactive) | GI50 (UO-31): > 100 µM (inactive) | GI50 (OVCAR-5): > 100 µM (inactive) | GI50 (U-251): > 100 µM (inactive) | GI50 (SF-539): > 100 µM (inactive) | GI50 (K562): > 100 µM (inactive) | GI50 (T47D): > 100 µM (inactive) | GI50 (M14): > 100 µM (inactive) | GI50 (HCT-116): > 100 µM (inactive) | GI50 (MCF7): > 100 µM (inactive) | GI50 (SN12C): > 100 µM (inactive) | GI50 (TK-10): > 100 µM (inactive) | GI50 (HOP-62): > 100 µM (inactive) | GI50 (DU-145): > 100 µM (inactive) | GI50 (NCI-H23): > 100 µM (inactive) | GI50 (NCI/ADR-RES): > 100 µM (inactive) | GI50 (RXF 393): > 100 µM (inactive) | GI50 (UACC-62): > 100 µM (inactive) | GI50 (NCI-H460): > 100 µM (inactive) | GI50 (CAKI-1): > 100 µM (inactive) | GI50 (ACHN): > 100 µM (inactive) | GI50 (MDA-MB-435): > 100 µM (inactive) | GI50 (MOLT-4): 89.5 µM (inactive) | GI50 (NCI-H522): > 100 µM (inactive)
